# In patent publication US11028090B2 (Dong Wha Pharm. Co., Ltd., priority 2017, dated 2021):
# Counter-ions that a name gives are not always drawn. Like-named read-outs stand apart in the source and are kept apart here.
# Experiments:
# [1] = molecular target: BRD4 (BD1+BD2) bromodomain (Homo sapiens (Human), UniProt O60885); assay: BRD4 binding inhibition (AlphaScreen, GST-BRD4 vs tetraacetylated histone H4 peptide)
# Summary of the method: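 AlphaScreen read after 30 min dark incubation at room temperature with glutathione acceptor/streptavidin donor beads (10 μg/ml each). The beads were added to compound plus 100 nM biotin-H4 (K5,8,12,16-acetyl) peptide and 100 nM GST-BRD4 BD1+BD2 in pH 7.4 HEPES/Tween/BSA/DTT buffer.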
# [2] = system: acute myelogenous leukemia cells (MV-4-11 cells); assay: Cytotoxicity to acute myelogenous leukemia cells (MV-4-11 cells), CCK-8; settings: Homo sapiens, MV4-11, 72 h
# [3] = GST-BRD4 (BD1+BD2) vs biotinylated acetyl-histone H4 peptide, AlphaScreen, read-out: BRD4 IC50
# [4] = read-out: MV-4-11 Cytotoxicity IC50
# [5] = read-out: IC50, cytotoxicity against acute myelogenous leukemia cells
# [6] = GST-BRD4 (BD1+BD2) / biotinylated acetyl-histone H4 (Lys5,8,12,16) peptide, read-out: IC50, BRD4 binding inhibition
SMILES,"IC50 [1, 3]","IC50 [2, 4]","IC50 [2, 5]","IC50 [1, 6]"
"COc1cc2c(cc1F)nc(NCCCCNC(=O)CC(C)C)c1nnc(C)n12 [Example 575, N-[4-(7-fluoro-8-methoxy-1-methyl-[1,2,4]triazolo[4,3-a]quinoxaline-4-ylamino)-butyl]-3-methyl-butyramide]",51 nM,337 nM,–,–
"COc1c(C)ccc2c1nc(NCCCCNC(=O)c1ccccc1)c1nnc(C)n12 [Example 138, N-[4-(6-methoxy-1,7-dimethyl-[1,2,4]triazolo[4,3-a]quinoxaline-4-ylamino)-butyl]-benzamide]",51 nM,860 nM,–,–
"Cc1nnc2c(NCCCCNC(=O)[C@@H](N)C(C)C)nc3cc(N4CC(C)OC(C)C4)ccc3n12 (stereo partly drawn) [Example 514, 2-(S)-amino-N-{4-[7-(2,6-dimethyl-morpholine-4-yl)-1-methyl-[1,2,4]triazolo[4,3-a]quinoxaline-4-ylamino]-butyl}-3-methyl-butyramide hydrochloride]",60 nM,432 nM,–,–
"COc1ccc2c(c1)nc(NCCCCNC(=O)Cc1ccco1)c1nnc(C)n12 [Example 308, 2-furan-2-yl-N-[4-(7-methoxy-1-methyl-[1,2,4]triazolo[4,3-a]quinoxaline-4-ylamino)-butyl]-acetamide]",58 nM,20 nM,≤ 200 nM,–
"COc1ccc2c(c1)nc(NCCCCNC(=O)CCC(C)C)c1nnc(C)n12 [Example 288, 4-methyl-pentanoic acid-[4-(7-methoxy-1-methyl-[1,2,4]triazolo[4,3-a]quinoxaline-4-ylamino)-butyl]-amide]",15 nM,34 nM,≤ 200 nM,≤ 50 nM
"Cc1nnc2c(NCCCCNC(=O)CC(C)C)nc3cc(O)ccc3n12 [Example 340, N-[4-(7-hydroxy-1-methyl-[1,2,4]triazolo[4,3-a]quinoxaline-4-ylamino)-butyl]-3-methyl-butyramide]",23 nM,54 nM,≤ 200 nM,≤ 50 nM
"COc1cc(C)c2c(c1)nc(NCCCCNC(=O)CC(C)C)c1nnc(C)n12 [Example 458, [4-(7-methoxy-1,9-dimethyl-[1,2,4]triazolo[4,3-a]quinoxaline-4-ylamino)-butyl]-3-methyl-butyramide]",–,530 nM,–,≤ 10 nM
"COc1ccc2c(c1)nc(NCCCCNC(=O)NC1CCCCC1)c1nnc(C)n12 [Example 335, 1-cyclohexyl-3-[4-(7-methoxy-1-methyl-[1,2,4]triazolo[4,3-a]quinoxaline-4-ylamino)-butyl]-urea]",16 nM,40 nM,≤ 200 nM,≤ 50 nM
Cc1nnc2c(NCCCCNC(=O)CC(C)C)nc3cc([N+](=O)[O-])ccc3n12 [Example 244],89 nM,260 nM,–,–
"COc1cc(N)c(NC(=O)c2ccc3c(c2)nc(NCCCCNC(=O)CC(C)C)c2nnc(C)n23)cc1OC [Example 217, 1-methyl-4-[4-(3-methyl-butyrylamino)-butylamino]-[1,2,4]triazolo[4,3-a]quinoxaline-7-carboxylic acid-(2-amino-4,5-dimethoxy-phenyl)-amide]",16 nM,256 nM,–,≤ 50 nM
"Cc1nnc2c(NCCCCNC(=O)Cc3cccs3)nc3cc(N4CCOCC4)ccc3n12 [Example 507, N-[4-(1-methyl-7-morpholine-4-yl-[1,2,4]triazolo[4,3-a]quinoxaline-4-ylamino)-butyl]-2-thiophene-2-yl-acetamide]",11 nM,21 nM,≤ 200 nM,≤ 50 nM
"CCC(CC)C(=O)NCCCCNc1nc2cc(OC)ccc2n2c(C)nnc12 [Example 290, 2-ethyl-N-[4-(7-methoxy-1-methyl-[1,2,4]triazolo[4,3-a]quinoxaline-4-ylamino)-butyl]-butyramide]",23 nM,150 nM,≤ 200 nM,≤ 50 nM
"COCCOc1ccc2c(c1)nc(NCCCCNC(=O)Cc1ccccc1)c1nnc(C)n12 [Example 420, N-{4-[7-(2-methoxy-ethoxy)-1-methyl-[1,2,4]triazolo[4,3-a]quinoxaline-4-ylamino]-butyl}-2-phenyl-acetamide]",2 nM,180 nM,≤ 200 nM,≤ 10 nM
"COc1ccc2c(c1)nc(NCCCCNC(=O)C(NC(=O)OC(C)(C)C)C(C)C)c1nnc(C)n12 (centres unmarked) [Example 310, {1-[4-(7-methoxy-1-methyl-[1,2,4]triazolo[4,3-a]quinoxaline-4-ylamino)-butylcarbamoyl]-2-methyl-propyl}-carbamic acid-tert-butylester]",42 nM,126 nM,≤ 200 nM,≤ 50 nM
Cc1nnc2c(NCCCCNC(=O)OCC(C)C)nc3cc(-n4ccnc4)ccc3n12 [Example 493],5 nM,48 nM,≤ 200 nM,≤ 10 nM
"CCOc1ccc2c(c1)nc(NCCCCNC(=O)CC(C)C)c1nnc(C)n12 [Example 442, N-[4-(7-ethoxy-1-methyl-[1,2,4]triazolo[4,3-a]quinoxaline-4-ylamino)-butyl]-3-methyl-butyramide]",16 nM,110 nM,≤ 200 nM,≤ 50 nM
Cc1nnc2c(NCCCCNC(=O)[C@@H](NC(=O)[C@@H](F)C(C)C)C(C)C)nc3cc(N4C[C@@H](C)O[C@@H](C)C4)ccc3n12 [Example 517],38 nM,236 nM,–,≤ 50 nM
"Cc1nnc2c(NCCCCNC(=O)CC(C)C)nc3cc(-c4nc5ccccc5n4C)ccc3n12 [Example 222, 3-methyl-N-{4-[1-methyl-7-(1-methyl-1H-benzoimidazole-2-yl)-[1,2,4]triazolo[4,3-a]quinoxaline-4-ylamino]-butyl}-butyramide]",1 nM,53 nM,≤ 200 nM,≤ 10 nM
"Cc1nnc2c(NCCCCNC(=O)C(C)(C)C)nc3cc(-c4nc5ccccc5n4C)ccc3n12 [Example 230, 2,2-dimethyl-N-{4-[1-methyl-7-(1-methyl-1H-benzoimidazole-2-yl)-[1,2,4]triazolo[4,3-a]quinoxaline-4-ylamino]-butyl}-propionamide]",13 nM,580 nM,–,≤ 50 nM
"COc1ccc2c(c1)nc(NCCCCNC(=O)NC(C)C)c1nnc(C)n12 [Example 330, 1-isopropyl-3-[4-(7-methoxy-1-methyl-[1,2,4]triazolo[4,3-a]quinoxaline-4-ylamino)-butyl]-urea]",29 nM,140 nM,≤ 200 nM,≤ 50 nM
"COCCOc1cc2nc(NCCCCNC(=O)c3ccc(C)nc3Cl)c3nnc(C)n3c2cc1OCCOC [Example 172, N-{4-[7,8-bis-(2-methoxy-ethoxy)-1-methyl-[1,2,4]triazolo[4,3-a]quinoxaline-4-ylamino]-butyl}-2-chloro-6-methyl-nicotinamide]",40 nM,280 nM,–,≤ 50 nM
"Cc1nnc2c(NCCCCNC(=O)OC(C)(C)C)nc3cc(-c4nc5ccccc5n4C)ccc3n12 [Example 220, {4-[1-methyl-7-(1-methyl-1H-benzoimidazole-2-yl)-[1,2,4]triazolo[4,3-a]quinoxaline-4-ylamino]-butyl}-carbamic acid-tert-butylester]",–,350 nM,–,≤ 10 nM
"COCCOc1ccc2c(c1)nc(NCCCCNC(=O)C(C)(C)C)c1nnc(C)n12 [Example 375, {4-[7-(2-methoxy-ethoxy)-1-methyl-[1,2,4]triazolo[4,3-a]quinoxaline-4-ylamino]-butyl}-2,2-dimethyl-propionamide]",–,400 nM,–,≤ 50 nM
"COc1ccc2c(c1)nc(NCCCCNC(=O)[C@H](C(C)C)N1CCC(O)C1)c1nnc(C)n12 (stereo partly drawn) [Example 315, 2-(S)-(3-hydroxy-pyrrolidine-1-yl)-N-[4-(7-methoxy-1-methyl-[1,2,4]triazolo[4,3-a]quinoxaline-4-ylamino)-butyl]-3-methyl-butyramide]",36 nM,550 nM,–,≤ 50 nM
"Cc1nnc2c(NCCCCNC(=O)CC(C)C)nc3cc(OCCCC#N)ccc3n12 [Example 342, N-{4-[7-(3-cyano-propoxy)-1-methyl-[1,2,4]triazolo[4,3-a]quinoxaline-4-ylamino]-butyl}-3-methyl-butyramide]",56 nM,28 nM,≤ 200 nM,–
"CCCNc1cc2c(cc1OC)nc(NCCCCNC(=O)CC(C)C)c1nnc(C)n12 [Example 559, N-[4-(7-methoxy-1-methyl-8-propylamino-[1,2,4]triazolo[4,3-a]quinoxaline-4-ylamino)-butyl]-3-methyl-butyramide]",7 nM,141 nM,≤ 200 nM,≤ 10 nM
"Cc1nnc2c(NCCCCNC(=O)Cc3cccs3)nc3cc(OC(C)C)ccc3n12 [Example 451, N-[4-(7-isopropoxy-1-methyl-[1,2,4]triazolo[4,3-a]quinoxaline-4-ylamino)-butyl]-2-thiophene-2-yl-acetamide]",13 nM,24 nM,≤ 200 nM,≤ 50 nM
"COc1ccc2c(c1)nc(NCCCCNC(=O)C(N)C(C)C)c1nnc(C)n12 (centres unmarked) [Example 311, 2-amino-N-[4-(7-methoxy-1-methyl-[1,2,4]triazolo[4,3-a]quinoxaline-4-ylamino)-butyl]-3-methyl-butyramide]",43 nM,208 nM,–,≤ 50 nM
"Cc1nnc2c(NCCCCNC(=O)CC(C)C)nc3cc(N4C[C@@H](C)O[C@@H](C)C4)ccc3n12 [Example 510, N-{4-[7-(2,6-dimethyl-morpholine-4-yl)-1-methyl-[1,2,4]triazolo[4,3-a]quinoxaline-4-ylamino]-butyl}-3-methyl-butyramide]",57 nM,335 nM,–,–
